Measured values reported in US20210403864A1, “METHODS AND COMPOSITIONS FOR TREATING ACTIVATED G-ALPHA Q MUTANT CANCERS OR MELANOCYTIC MALIGNANCIES” (Memorial Sloan Kettering Cancer Center, priority 2018, published 2021).
Where a chain is given by its changes, count along the chain named.

What was measured:
GNAQ^G48V [1] = target: T1, GNAQ^G48V (Homo sapiens, UniProt P50148, G48V); assay: IP1 accumulation assay in transiently transfected HEK293T cells; type: cell-based; conditions: 24-hour treatment
T1 construct: host or cells: melan-a (immortalized mouse melanocytes), retroviral transduction with MSCV-Puro
T1 sequence (P50148 1-359 G48V): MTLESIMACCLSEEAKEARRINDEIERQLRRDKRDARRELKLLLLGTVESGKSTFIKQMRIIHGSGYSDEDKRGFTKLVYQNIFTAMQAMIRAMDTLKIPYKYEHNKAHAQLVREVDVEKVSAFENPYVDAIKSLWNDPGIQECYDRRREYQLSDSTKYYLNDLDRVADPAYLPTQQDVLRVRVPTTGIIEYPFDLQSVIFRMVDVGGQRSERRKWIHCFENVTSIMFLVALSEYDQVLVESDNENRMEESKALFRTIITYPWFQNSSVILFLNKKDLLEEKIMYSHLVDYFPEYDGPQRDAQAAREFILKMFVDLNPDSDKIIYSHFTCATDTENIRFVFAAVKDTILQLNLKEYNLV
Protocol: (§1) Cells were treated with YM at increasing doses for 24 hours. Error bars, s.e.m. from three biological replicates, each with three technical replicates.
(§2) Exogenous Gene Expression. HEK293T cells were transiently transfected to express vectors containing synthetic CYSLTR2 (Moore A R, et al., Nat Genet. 48(6):675 (2016)) and GNAQ. Genewiz was used to codon optimize these sequences for expression in mammalian cells. The human GNAQ α-subunit plasmids encoding for GNAQ mutants Q209L, R183Q and G48V were generated by Quick Change (Agilent Technologies, Santa Clara, Calif.) site-directed mutagenesis. HEK293T cells were transiently transfected with the plasmids encoding for GNAQ WT and mutants subcloned into pcDNA3.1(+) using Lipofectamine according to the manufacturer's instructions. Briefly, 9,000 HEK293T cells were transfected in low-volume 384-well plates with 11 ng of total DNA/well for 24 hours. Human cDNAs for WT CYSLTR2 and GNAQ were obtained from Origene and cloned into MSCV-Puro (Addgene plasmid #68469) for stable expression in melan-a cells via retroviral transduction with X-tremeGENE 9 (Sigma-Aldrich, St. Louis Mo.). Quikchange primers were used to introduce the various mutant constructs. All constructs were confirmed by sequencing. The primers used in the experiments described herein are provided below: […]
(§3) IP1 Accumulation Assay. IP1 concentrations in GNAQ-transfected HEK293T cells, GNAQ-expressing melan-a cells and uveal melanoma cells was measured using a competitive homogenous time resolved fluorescence (HTRF) assay (CisBio, Bedford, Mass.). Briefly, 9,000 transiently transfected-HEK293T cells, 5,000 melan-a cells and 5,000 uveal melanoma cells were seeded in low-volume 384-well plates in 7 μL media for 24 hours prior YM-254890 treatment. Cells were then treated with various concentrations of YM-254890 diluted in the appropriate media at 37° C. for 3 hours or 24 hours. […] Following incubation, cells were lysed by adding 3 μL/well of d2-labeled IP1 analogue as the fluorescence acceptor and the Terbium cryptate-labeled anti-IP1 mAb as the fluorescence donor, diluted in the kit-supplied lysis buffer. The plates were incubated overnight at RT and time-resolved fluorescence signals were read using the BioTek Synergy NEO plate reader (BioTek Instruments, Winooski, Vt.) at 620 nm and […]. Results were calculated as a 665 nm/620 nm signal ratio, and IP1 concentrations were interpolated from a standard curve prepared using the supplied IP1 calibrator. […] Dose-response curves and bar graphs were analyzed using GraphPad Prism 7.0 software. […]

GNAQ^R183Q = target: T2, GNAQ^R183Q (Homo sapiens, UniProt P50148, R183Q); assay: as above; type: cell-based; conditions: 24-hour treatment
T2 construct: host or cells: melan-a (immortalized mouse melanocytes), retroviral transduction with MSCV-Puro
T2 sequence (P50148 1-359 R183Q): T1 sequence (P50148 1-359 G48V) with V48G, R183Q
Protocol: as §1, §2, §3

GNAQ^G48V [2] = target: T1, GNAQ^G48V; assay: IP1 accumulation assay in mutation dependent melan-a cells; type: cell-based, mouse
Protocol: Cells were treated with increasing concentrations of YM-254890 (YM) for 3 hours (top) and 24 hours (bottom). Error bars, s.e.m. from three biological replicates, each with three technical replicates.
Cell Culture and in vitro analysis. Mutation dependent melan-a cells were generated by transducing cells with cDNAs in MSCV-PURO (retrovirus) and then selecting cells with puromycin (1 μg/ml) for two days. TPA (Sigma-Aldrich, St. Louis, Mo.) was then withdrawn from cultures. Cells with activating mutations (CYSLTR2^L129Q, GNAQ^G48V/R183Q/Q209L, KRAS^G12V, and BRAF^V600E) continued to proliferate over several passages (>2 weeks) and were then validated with qRT-PCR and immunoblots. Vector and WT controls were unable to maintain proliferation after a couple passages upon TPA withdrawal. All cells were cultured in media containing 10% FBS, L-glutamine ([…]), penicillin (100 U/ml), streptomycin (100 μg/ml). Melan-a cells provided by D. Bennett, St. George's Hospital, University of London (Johnson C P, et al., PLoS One. 12(6):1-17 (2017)), were cultured in RPMI supplemented with 200 nM TPA unless otherwise noted. HEK293T (from ATCC, Manassas, Va.) cells were cultured in DMEM-Q and UVM cells were cultured in RPMI. All cells tested negative for mycoplasma. Cell growth assays and YM dose response curves were assayed using CellTiter-glo 2.0 (Promega, Madison, Wis.) at given time points or after five days of incubation with YM and readout on a Glomax Luminometer (Promega, Madison, Wis.). IC50 values were calculated using Prism 7.0 software. Growth assays were compared to day 1 readings and dose response curves were compared to vehicle. Data shown is representative of at least three independent experiments with at least three technical replicates. Dose-response curves and growth assays were analyzed using GraphPad Prism 7.0 software.
IP1 Accumulation Assay. IP1 concentrations in GNAQ-transfected HEK293T cells, GNAQ-expressing melan-a cells and uveal melanoma cells was measured using a competitive homogenous time resolved fluorescence (HTRF) assay (CisBio, Bedford, Mass.). Briefly, 9,000 transiently transfected-HEK293T cells, 5,000 melan-a cells and 5,000 uveal melanoma cells were seeded in low-volume 384-well plates in 7 μL media for 24 hours prior YM-254890 treatment. Cells were then treated with various concentrations of YM-254890 diluted in the appropriate media at 37° C. for 3 hours or 24 hours. 1 h prior lysis, cells were supplemented with 1× Stimulation Buffer provided by the manufacturer (HEPES 10 mM, CaCl2) 1 mM, MgCl2 0.5 mM, KCl 4.2 mM, NaCl 146 mM, glucose 5.5 mM, LiCl 50 mM, pH 7.4) with 0.2% BSA and 50 mM of LiCl (to prevent IP1 degradation). Following incubation, cells were lysed by adding 3 μL/well of d2-labeled IP1 analogue as the fluorescence acceptor and the Terbium cryptate-labeled anti-IP1 mAb as the fluorescence donor, diluted in the kit-supplied lysis buffer. The plates were incubated overnight at RT and time-resolved fluorescence signals were read using the BioTek Synergy NEO plate reader (BioTek Instruments, Winooski, Vt.) at 620 nm and […]. Results were calculated as a 665 nm/620 nm signal ratio, and IP1 concentrations were interpolated from a standard curve prepared using the supplied IP1 calibrator. Results are shown as IP1 (nM). Dose-response curves and bar graphs were analyzed using GraphPad Prism 7.0 software.

## YM-254890
GNAQ^G48V [1]
  potency of inhibition of IP1 accumulation: subnanomolar potency
GNAQ^R183Q
  fold less sensitive to YM compared to CYSLTR2^L129Q and GNAQ^G48V (IP1 accumulation): ~20 fold
GNAQ^G48V [2]; 24-hour treatment
  inhibition of IP1 accumulation: completely inhibited
  relative sensitivity to YM (IP1 accumulation): most sensitive
GNAQ^G48V [2]; 3 hours of treatment
  sensitivity of IP1 accumulation after 3 hours versus 24 hours: less sensitive
